Test results published in ChEMBL document CHEMBL5352446, “Synthesis and biological evaluation of a novel c-Myc inhibitor against colorectal cancer via blocking c-Myc/Max heterodimerization and disturbing its DNA binding” (Eur J Med Chem, 2022).
The source made the active and inactive calls. The calls are words filed in the database; no cut-off is given here.

How the values were obtained:
[1] = system: HT-29; assay: Induction of apoptosis in human HT-29 cells assessed as late apoptotic cells at 0.625 uM incubated for 24 hrs by FITC Annexin-V and PI staining based flow cytometry analysis (reference value: 0.78%); format: functional
[2] = system: HT-29; assay: Induction of apoptosis in human HT-29 cells assessed as necrotic cells at 10 uM incubated for 24 hrs by FITC Annexin-V and PI staining based flow cytometry analysis (reference value: 0.13%); format: functional
[3] = system: HT-29; assay: Induction of apoptosis in human HT-29 cells assessed as necrotic cells at 0.625 uM incubated for 24 hrs by FITC Annexin-V and PI staining based flow cytometry analysis (reference value: 0.13%); format: functional
[4] = Toxicity in BALB/c mouse xenografted with human HT-29 cells assessed as body weight loss at 40 to 80 mg/kg, ip measured after 21 days; format: organism-based; conditions: in vivo, 504 h, dose 40-80 mg/kg, time 21 day
[5] = system: HCT-116; assay: Downregulation of c-Myc expression in human HCT-116 cells incubated for 24 hrs by Western blot analysis; format: functional, cell-based; conditions: dose 2.5-10 µM
[6] = system: HT-29; assay: Induction of apoptosis in human HT-29 cells assessed as upregulation of BAD expression incubated for 24 hrs by Western blot analysis; format: functional, cell-based; conditions: dose 2.5-10 µM
[7] = system: HT-29; assay: Induction of apoptosis in human HT-29 cells assessed as early apoptotic cells at 5 uM incubated for 24 hrs by FITC Annexin-V and PI staining based flow cytometry analysis (reference value: 2.15%); format: functional
[8] = system: HT-29; assay: Induction of apoptosis in human HT-29 cells assessed as upregulation of cleaved PARP expression incubated for 24 hrs by Western blot analysis; format: functional, cell-based; conditions: dose 2.5-10 µM
[9] = system: HT-29; assay: Induction of cell cycle arrest in human HT-29 cells assessed as accumulation of cells at G2 phase at 1.25 uM incubated for 24 hrs by propidium iodide staining based flow cytometry analysis (reference value: 16.33 %); format: functional
[10] = system: HCT-116; assay: Inhibition of cell migration in human HCT-116 cells incubated for 48 hrs by wound healing analysis; format: functional, cell-based
[11] = system: HT-29; assay: Induction of cell cycle arrest in human HT-29 cells assessed as accumulation of cells at G1 phase at 2.5 uM incubated for 24 hrs by propidium iodide staining based flow cytometry analysis (reference value: 65.37 %); format: functional
[12] = system: HT-29; assay: Induction of apoptosis in human HT-29 cells assessed as viable cells at 5 uM incubated for 24 hrs by FITC Annexin-V and PI staining based flow cytometry analysis (reference value: 96.94%); format: functional; conditions: read-out: Activity
[13] = system: HCT-15; assay: Antiproliferative activity against human HCT-15 cells incubated for 72 hrs by MTT assay; format: functional, cell-based; conditions: HCT-15, 72 h
[14] = system: HT-29; assay: Induction of apoptosis in human HT-29 cells assessed as upregulation of cleaved caspase 3 expression incubated for 24 hrs by Western blot analysis; format: functional, cell-based; conditions: dose 2.5-10 µM
[15] = system: HCT-116; assay: Downregulation of c-Myc expression in human HCT-116 cells at 10 uM incubated for 24 hrs by Western blot analysis; format: functional, cell-based
[16] = Toxicity in BALB/c mouse xenografted with human HT-29 cells assessed as spleen damage at 40 mg/kg, ip measured after 21 days by H and E staining based assay; format: organism-based; conditions: in vivo, 504 h, time 21 day
[17] = system: HT-29; assay: Inhibition of colony formation in human HT-29 cells measured after 14 days by crystal violet staining based assay; format: functional, cell-based; conditions: dose 0.25-2 µM, time 14.0 day
[18] = system: L02; assay: Cytotoxicity against human L02 cells incubated for 72 hrs by MTT assay; format: toxicity, cell-based; conditions: l02, 72 h
[19] = system: HT-29; assay: Induction of apoptosis in human HT-29 cells assessed as early apoptotic cells at 2.5 uM incubated for 24 hrs by FITC Annexin-V and PI staining based flow cytometry analysis (reference value: 2.15%); format: functional
[20] = system: HT-29; assay: Induction of apoptosis in human HT-29 cells assessed as viable cells at 10 uM incubated for 24 hrs by FITC Annexin-V and PI staining based flow cytometry analysis (reference value: 96.94%); format: functional; conditions: read-out: Activity
[21] = Toxicity in BALB/c mouse xenografted with human HT-29 cells assessed as liver damage at 40 to 80 mg/kg, ip measured after 21 days by H and E staining based assay; format: organism-based; conditions: in vivo, 504 h, dose 40-80 mg/kg, time 21 day
[22] = system: HT-29; assay: Induction of cell cycle arrest in human HT-29 cells assessed as accumulation of cells at G2 phase at 5 uM incubated for 24 hrs by propidium iodide staining based flow cytometry analysis (reference value: 16.33 %); format: functional
[23] = Toxicity in BALB/c mouse xenografted with human HT-29 cells assessed as lung damage at 40 to 80 mg/kg, ip measured after 21 days by H and E staining based assay; format: organism-based; conditions: in vivo, 504 h, dose 40-80 mg/kg, time 21 day
[24] = system: HT-29; assay: Induction of apoptosis in human HT-29 cells assessed as upregulation of Bax expression incubated for 24 hrs by Western blot analysis; format: functional, cell-based; conditions: dose 2.5-10 µM
[25] = system: HT-29; assay: Induction of apoptosis in human HT-29 cells assessed as early apoptotic cells at 10 uM incubated for 24 hrs by FITC Annexin-V and PI staining based flow cytometry analysis (reference value: 2.15%); format: functional
[26] = system: HCT-116; assay: Inhibition of colony formation in human HCT-116 cells measured after 14 days by crystal violet staining based assay; format: functional, cell-based; conditions: dose 0.25-2 µM, time 14.0 day
[27] = system: HT-29; assay: Induction of apoptosis in human HT-29 cells assessed as early apoptotic cells at 1.25 uM incubated for 24 hrs by FITC Annexin-V and PI staining based flow cytometry analysis (reference value: 2.15%); format: functional
[28] = system: HT-29; assay: Induction of apoptosis in human HT-29 cells assessed as necrotic cells at 5 uM incubated for 24 hrs by FITC Annexin-V and PI staining based flow cytometry analysis (reference value: 0.13%); format: functional
[29] = system: HT-29; assay: cells; conditions: Homo sapiens, HT-29, 72 h
Description: Antiproliferative activity against human HT-29 cells incubated for 72 hrs by MTT assay

[30] = system: HT-29; assay: Induction of apoptosis in human HT-29 cells assessed as viable cells at 2.5 uM incubated for 24 hrs by FITC Annexin-V and PI staining based flow cytometry analysis (reference value: 96.94%); format: functional; conditions: read-out: Activity
[31] = system: HT-29; assay: Induction of cell cycle arrest in human HT-29 cells assessed as accumulation of cells at G2 phase at 2.5 uM incubated for 24 hrs by propidium iodide staining based flow cytometry analysis (reference value: 16.33 %); format: functional

COc1cc(Oc2ccc(Nc3ccc(CCCO)cc3)cc2)cc(OC)c1CNCCc1ccc(C(F)(F)F)cc1
Activity [1]: 3.14% | Activity [2]: 1.87% | Activity [3]: 1.44% | Activity [4]: Non-Toxic | Activity [5]: Dose-Dependent Effect | Activity [6]: Dose-Dependent Effect | Activity [7]: 22.05% | Activity [8]: Dose-Dependent Effect | Activity [9]: 11.24% | inhibition [10]: Active | Activity [11]: 75.57% | viability at 5 µM [12]: 69% | IC50 [13]: 2340 nM | Activity [14]: Dose-Dependent Effect | Activity [15]: Active | Activity [16]: Toxic | inhibition [17]: Dose-Dependent Effect | Activity [18]: Non-Toxic | Activity [19]: 19.39% | viability at 10 µM [20]: 55.6% | Activity [21]: Non-Toxic | Activity [22]: 8.51% | Activity [23]: Non-Toxic | Activity [24]: Dose-Dependent Effect | Activity [25]: 29.06% | inhibition [26]: Dose-Dependent Effect | Activity [27]: 12.78% | Activity [28]: 1.29% | IC50 [29]: 290 nM | viability at 2.5 µM [30]: 69.6% | Activity [31]: 8.23%
